In experiment [1] the test system is MDSCs (Gr1+CD11b+). On the set-up: species or system mice. As to conditions: mouse, in vivo.
The subject of experiment [2] is CD4+Foxp3+ Treg cells. On the set-up: species or system mice. As to conditions: mouse, in vivo.
Experiment [3] deals with CD247 (ζ chain). Further details: species or system mice. The following applies: mouse, in vivo; for increase in the expression value of CD247 upon treatment: ip.
Experiment [4] has as its system CD3ε chain. Further details: species or system mice. As to conditions: mouse, in vivo.
For experiment [5], the system named is MDSCs. The format is in vivo, mice. As to conditions: spleen of BCG-inflamed mice, monotherapy, MFI.
The test system of experiment [6] is CD247. The experiment is described as follows: Adoptive transfer of CFSE-labeled normal splenocytes, CD247 in host and donor cells. It counts as in vivo, mice. The following applies: BCG-inflamed hosts, 24 h after transfer, spleen. As for the experimental part: CFSE-labeled splenocytes from normal mice (donor cells) were adoptively transferred into mice untreated, inflamed, and inflamed treated i.p. with irinotecan (hosts). After 24 h, splenocytes from each group were harvested and stained for CD247 expression (MFI) in CD3+ T cells within the CFSE+ (donor-cell) or CFSE− (host-cell) population. Data from three independent experiments (n=4) is presented. Statistical analyses using t test indicated significant differences at 95% Cl. Means and SEM are shown. * P<0.05. Abbreviations: Ho. (host), Do. (donor), cont. (control).
CFSE-labeled splenocytes from normal mice (donor cells) were adoptively transferred into non-inflamed, inflamed, and inflamed mice treated i.p. with 5-FU (hosts). After 24 h, splenocytes from each group were harvested and stained for CD247 expression (MFI) in CD3+ T cells within the CFSE+ (donor-cell) or CFSE− (host-cell) population. Data from three independent experiments (n=4) is presented. Statistical analyses using t test indicated significant differences at 95% Cl. Means and SEM are shown. *, P<0.05. Abbreviations: Ho. (host), Do. (donor), cont. (control).
Next, the effect of etanercept treatment on the host's immune status as well as on adoptively transferred T- and NK-cells was examined. It should be noted that adoptively transferred T- and NK-cells being a treatment that is frequently used today in different immunotherapeutic regiments for various pathologies. To this end, CFSE-labeled normal splenocytes were administered, i.v., 1 day before cell harvest, at the peak of the inflammatory response (mimicking cell mediated therapies).

For experiment [7], the system named is CD11b+CD11c+ and CD11b+F4/80+ cells. Put plainly: Myeloid differentiation state in spleen (DCs, macrophages, APC maturation). The format is in vivo. As to conditions: BCG-inflamed mice. The source says:
FIG. 18A-18E. Splenocytes and PBLs from mice untreated (naïve), inflamed, or inflamed and treated with 5-FU or CPT-11 were fixed, permeabilized, and double stained for the expression of CD247 (ζ-chain) (FIGS. 18A, 18B) and CD3ε-chain (FIGS. 18D, 18E), as shown by mean fluorescence intensity (MFI), measured in gated CD3^+ cells. FIG. 18C: Splenocytes from mice, naïve, inflamed and inflamed treated with 5-FU or CPT-11, were labeled with CFSE and activated with anti-CD3 and anti-CD28 antibodies or left non-activated. The proliferative response was assessed by monitoring cell divisions of gated CFSE-labeled Thy1.2+ (CD90+) T-cells. The percent of proliferating cells was calculated and compared to steady state levels of non-activated cells per each group. Data from three independent experiments is presented (n=3). Statistical analyses using t test indicated significant differences at 95%. Means and SEM are shown. *, P<0.05; **, P<0.01. FIG. 18F-18I. For the detection of myeloid differentiation state, splenocytes from each group were stained for (18F) DC11b^+CD11c^+ cells (representing DCs), (18G) DC11b^+F4/80^+ cells (representing monocytes), (18H) CD11c^+MHCII^+CD80^+ cells (representing fully differentiated […] as antigen presenting cells) and (18I) F4/80^+MHCII^+CD80^+ cells (representing fully differentiated […] as antigen presenting cells). Data from three independent experiments (n=4) is presented. Statistical analyses using t test indicated significant differences at 95%. Means and SEM are shown. *, P<0.05; **, P<0.01; ***, P<0.001. Abbreviations: Nor. (normal), Rel. (relative), Inf. (inflamed), ce. Pro. (cell proliferation)
Isolated splenocytes and peripheral blood leukocytes (PBLs) were treated with erythrocyte lysis buffer and washed in PBS. Cells were pre-coated with anti-CD16/CD32 (Biolegend) for FcR blockage. For surface staining, cells were incubated for 30 min at 4° C. with FITC-labeled anti-Gr1, anti-CD11c, and anti-CD4; PE-labeled anti F4/80, anti-CD3ε, anti-CD45R/B220, and anti-mNKp46; and biotinylated anti-CD11b and anti-CD8 that were detected with streptavidin-Cy5 (Biolegend and eBioscience). Intracellular staining of CD247 cells was performed by subjecting the cells to fixation with paraformaldehyde (1%) for 20 min at 4° C., followed by washing and permeabilization for 10 min with saponin detergent (0.1%) at room temperature (RT). Cells were then washed and incubated with FITC-labeled monoclonal anti-CD247 (H146) (Abcam), or biotinylated monoclonal anti-CD247 (H146), which were subsequently detected with streptavidin-Cy5. FoxP3 staining was performed according to the manufacturer's instructions. Samples were analyzed using FACSCalibur with Cell Quest software (BD).

Experiment [8] is described as follows: Spleen weight and size, BCG chronic inflammation mouse model. As to conditions: BCG-inflamed WT-mice, 2 days after third BCG injection. It counts as in vivo. The protocol:
FIG. 15B. Spleen weight (left) and size (right) in etanercept-treated and untreated mice (n=7) was evaluated 2 days following the third BCG injection. *P<0.003, **P<0.002 (t-test). Data are from two independent experiments (mean and s.d.).
Induced chronic inflammation in mice was established by sustained subcutaneous injections of the heat-killed Bacille Calmette Guerin strain of Mycobacterium tuberculosis, (231141; Difco Laboratories) (BCG, 50 μg per animal/dose) once a week, for three weeks. The first two BCG administrations were mixed 1:1 with Incomplete Freund's adjuvant (IFA) (Sigma), and the second boost delivery was given with PBS. Mice sacrifice and cell isolations were performed two days after the third injection. Spleen weight was measured and cells from the spleen and peripheral blood (PBLs) were analyzed. The results represent three independent experiments.

“Also recorded” adds a separate entry of the source.

As to `CS(=O)(=O)OCCCCOS(C)(=O)=O` [Busulfan, 1,4-butanediol dimethanesulfonate], in experiment [1], the “MDSC levels in peripheral blood (PBLs)” value was “significant decline; also recorded: decrease; also recorded: reduced” and the “MDSC levels in the spleen” value is “significant decline; also recorded: decrease; also recorded: reduced”. The “levels of Treg cells (CD4+Foxp3+) in spleen” value (“levels of Treg cells” for short) in experiment [2] was “remained unchanged”. Besides, in experiment [3], the “CD247 expression in T cells, spleen” value is recorded as “initial recovery” and the “increase in the expression value of CD247 upon treatment” value was “about 23%”. In addition, the CD3ε expression levels result in experiment [4] was “remained uniform among the different groups”.
As for `O=P1(N(CCCl)CCCl)NCCCO1` (stereo not shown) [Cyclophosphamide], in experiment [1], the “MDSC levels in peripheral blood (PBLs)” value is on record as “significantly increased; also recorded: significant accumulation” and the “MDSC levels in the spleen” value is given as “remained high; also recorded: significantly increased”. In experiment [2], the “levels of Treg cells” value is on record as “decrease”. The “CD247 expression in T cells, spleen” value in experiment [3] is reported as “down-regulation of CD247 that was observed in the course of chronic inflammation was maintained”. For the same molecule, in experiment [4], the CD3ε expression levels entry is given as “remained normal”. Besides, in experiment [5], the “NO production by MDSCs” value is “maintained high” and the “ROS production by MDSCs” value is listed as “maintained high”.
Take `COc1cccc2c1C(=O)c1c(O)c3c(c(O)c1C2=O)C[C@@](O)(C(=O)CO)C[C@@H]3O[C@H]1C[C@H](N)[C@H](O)[C@H](C)O1` [Doxorubicin]: in experiment [1], the “MDSC levels in peripheral blood (PBLs)” value is given as “significant decline; also recorded: decrease; also recorded: reduced” and the “MDSC levels in the spleen” value was “significant decline; also recorded: decrease; also recorded: reduced”. The “levels of Treg cells” value in experiment [2] is “not affected; also recorded: no change”. In experiment [3], the “CD247 expression in T cells, PBLs” value is “clear increase”; the “CD247 expression in T cells, spleen” value was “clear increase”; the “increase in the expression value of CD247 upon treatment” value is reported as “about 24%”. The CD3ε expression levels entry in experiment [4] is reported as “uniform among the different groups”.
With etanercept, the “MDSC levels in the spleen” value in experiment [1] is recorded as “decreased percentage of MDSCs”. Further, in experiment [6], the “CD247 expression in host and adoptively transferred donor NK cells” value is “significantly increased”; the “CD247 expression in host and adoptively transferred donor T cells” value was “significantly increased”. The “differentiated myeloid cells in spleen (CD11b+CD11c+ DCs, CD11b+F4/80+ macrophages)” value in experiment [7] is “significant increase”. The “spleen size and weight” value in experiment [8] was “reduced spleen size and weight”.

The record behind these values is patent US10955415B2, “CD247 as a biomarker for assessing the effect of chemotherapeutic and biological drugs” (YISSUM RESEARCH DEVELOPMENT COMPANY OF THE HEBREW …, priority 2011, dated 2021).
